From article PMC6669961, “Design and Optimization of Thioglycosyl–naphthalimides as Efficient Inhibitors Against Human O-GlcNAcase” (Frontiers in Chemistry, 2019)

How the values were obtained:
[1] = target: T1, human β-N-acetylhexosaminidase B (HsHexB) (Homo sapiens, UniProt P07686); assay: Enzyme inhibitory activity test against HsHexB (4-MU-GlcNAc substrate, end-point fluorescence; Dixon plots for Ki); format: biochemical; conditions: pH 4.5; for inhibition at 100 µM: 100 μM inhibitor, 40 μM 4-MU-GlcNAc, 30°C, 30 min, read-out: Inhibition rate at 100 μM (%) HsHexB; for Ki: Dixon plots, 4-MU-GlcNAc 40, 20, 10 μM
T1 construct: made in house; host or cells: Pichia pastoris
T1 sequence (P07686 122-556): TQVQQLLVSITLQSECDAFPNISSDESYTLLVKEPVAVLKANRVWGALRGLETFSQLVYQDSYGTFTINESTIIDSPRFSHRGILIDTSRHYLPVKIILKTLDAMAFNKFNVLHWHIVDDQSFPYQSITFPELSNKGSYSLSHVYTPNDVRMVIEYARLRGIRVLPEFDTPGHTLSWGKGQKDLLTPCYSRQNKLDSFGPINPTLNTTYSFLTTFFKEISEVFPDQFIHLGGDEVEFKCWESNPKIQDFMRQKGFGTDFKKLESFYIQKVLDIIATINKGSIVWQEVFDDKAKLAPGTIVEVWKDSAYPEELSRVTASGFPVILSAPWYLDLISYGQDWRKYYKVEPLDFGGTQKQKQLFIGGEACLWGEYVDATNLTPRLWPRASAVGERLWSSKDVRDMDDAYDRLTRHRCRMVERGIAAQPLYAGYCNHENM
Protocol: (§1) Human O-GlcNAcase (hOGA) was expressed in Escherichia coli BL21(DE3) and purified according to previous methods (Kong et al., [2016]). Human β-N-acetylhexosaminidase B (HsHexB) was overexpressed in Pichia pastoris and then purified as described previously (Shen et al., [2018a]).
(§2) All target compounds were evaluated for their inhibitory activities against hOGA and HsHexB in end-point experiments. 4-Methylumbelliferyl N-acetyl-β-D-glucosaminide (4-MU-GlcNAc) was used as substrate. In a final assay volume of 100 μL, inhibitor and substrate (40 μM) were mixed with Britton-Robinson buffer (hOGA, pH 6.5; HsHexB, pH 4.5) and enzyme; then, the assay components were incubated at 30°C for 30 min. Subsequently, the enzymatic reaction was terminated by the addition of 100 μL 0.5 M Na2CO3 solution. The fluorescence of the liberated 4-methylumbelliferone (Mu) was quantified at an excitation of 366 nm and emission of 445 nm on a Varioskan Flash microplate reader (Thermo Fisher Scientific, USA). To determine the inhibition constant (Ki), Dixon plots were performed by changing the concentration of the 4-MU-GlcNAc (40, 20, and 10 μM).

human O-GlcNAcase (hOGA) = target: T2, human O-GlcNAcase (hOGA) (Homo sapiens, UniProt O60502); assay: Enzyme inhibitory activity test against hOGA (4-MU-GlcNAc substrate, end-point fluorescence; Dixon plots for Ki); format: biochemical; conditions: for inhibition at 100 µM: 100 μM inhibitor, 40 μM 4-MU-GlcNAc, 30°C, 30 min, read-out: Inhibition rate at 100 μM (%) hOGA; for inhibition at 100 µM / Ki: pH 6.5; for Ki: Dixon plots, 4-MU-GlcNAc 40, 20, 10 μM; for inhibitory mechanism toward hOGA: kinetic studies via Dixon plots; for decrease in inhibitory activity against hOGA: NHC2H5 (17a or 17d) compared to NHCH3 (16h or 17c)
T2 construct: made in house; host or cells: Escherichia coli BL21(DE3)
T2 sequence (O60502 1-916): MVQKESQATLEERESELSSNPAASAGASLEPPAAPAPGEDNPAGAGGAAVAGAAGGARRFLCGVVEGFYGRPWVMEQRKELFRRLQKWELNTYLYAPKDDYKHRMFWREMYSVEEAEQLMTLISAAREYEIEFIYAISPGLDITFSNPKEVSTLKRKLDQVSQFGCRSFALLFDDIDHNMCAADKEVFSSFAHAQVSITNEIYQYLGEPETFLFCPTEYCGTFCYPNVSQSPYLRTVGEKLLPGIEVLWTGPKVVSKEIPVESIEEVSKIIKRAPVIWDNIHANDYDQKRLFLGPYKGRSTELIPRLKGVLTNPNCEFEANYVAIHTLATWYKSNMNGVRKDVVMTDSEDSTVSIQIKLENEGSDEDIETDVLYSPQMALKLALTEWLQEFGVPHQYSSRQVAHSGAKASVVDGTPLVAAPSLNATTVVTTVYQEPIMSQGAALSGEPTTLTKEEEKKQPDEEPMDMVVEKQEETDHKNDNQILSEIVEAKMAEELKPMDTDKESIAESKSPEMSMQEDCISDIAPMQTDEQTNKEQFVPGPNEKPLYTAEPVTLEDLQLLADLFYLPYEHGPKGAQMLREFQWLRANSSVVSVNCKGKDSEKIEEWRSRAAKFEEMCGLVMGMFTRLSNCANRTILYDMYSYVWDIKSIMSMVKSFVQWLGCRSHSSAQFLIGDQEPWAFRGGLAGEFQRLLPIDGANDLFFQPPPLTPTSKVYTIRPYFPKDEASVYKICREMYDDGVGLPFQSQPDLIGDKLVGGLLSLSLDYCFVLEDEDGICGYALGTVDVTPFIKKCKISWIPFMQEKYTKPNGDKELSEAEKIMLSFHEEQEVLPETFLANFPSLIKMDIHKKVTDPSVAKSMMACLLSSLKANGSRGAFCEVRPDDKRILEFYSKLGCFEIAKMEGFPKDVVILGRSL
Protocol: as §1, §2

HsHex = conditions: NGT; ref Knapp et al., 1996; read-out: Ki against HsHex; cited from earlier work

SMILES | inhibition at 100 µM [1] [%] | Ki [1] [µM] | inhibition at 100 µM (human O-GlcNAcase (hOGA)) [%] | Ki (human O-GlcNAcase (hOGA)) [µM] | increase in potency against hOGA (human O-GlcNAcase (hOGA); compared to lead compound 2 (Ki)) [fold] | inhibitory mechanism toward hOGA (human O-GlcNAcase (hOGA)) | decrease in inhibitory potency against hOGA (human O-GlcNAcase (hOGA); 10d compared to 10a (Ki)) [fold] | potency against hOGA reduced (human O-GlcNAcase (hOGA); 16h (NHCH3) compared to 16d (CH2CH3)) | decrease in inhibitory activity against hOGA (human O-GlcNAcase (hOGA)) [fold] | Ki (HsHex) [µM]
CC(=O)N[C@@H]1[C@@H](O)[C@H](O)[C@@H](CO)O[C@H]1SCC(=O)NCCCN1C(=O)c2cccc3c(Br)ccc(c23)C1=O [Compound 10a] | 36.5 ± 0.8 | > 100 | 98.7 ± 0.3 | 0.61 ± 0.02 | ~6 | competitive inhibitors |  |  |  | 
COc1ccc2c3c(cccc13)C(=O)N(CCCNC(=O)CS[C@@H]1O[C@H](CO)[C@@H](O)[C@H](O)[C@H]1NC(C)=O)C2=O [Compound 10b] | 49.2 ± 1.4 | > 100 | 90.6 ± 0.5 | 4.43 ± 0.21 |  |  |  |  |  | 
CC(=O)N[C@@H]1[C@@H](O)[C@H](O)[C@@H](CO)O[C@H]1SCC(=O)NCCCN1C(=O)c2cccc3c(N(C)C)ccc(c23)C1=O [Compound 10c] | 36.9 ± 0.2 | > 100 | 84.4 ± 1.7 | 9.72 ± 0.49 |  |  |  |  |  | 
CC(=O)N[C@@H]1[C@@H](O)[C@H](O)[C@@H](CO)O[C@H]1SCC(=O)NCCCN1C(=O)c2cccc3c(N4CCCCC4)ccc(c23)C1=O [Compound 10d] | 32.8 ± 2.7 | > 100 | 93.1 ± 0.2 | 1.42 ± 0.02 |  | competitive inhibitors | 2.3 |  |  | 
O=C(CS[C@@H]1O[C@H](CO)[C@@H](O)[C@H](O)[C@H]1NC(=O)c1ccccc1)NCCCN1C(=O)c2cccc3c(N4CCCCC4)ccc(c23)C1=O [Compound 16a] | 12.2 ± 0.2 | > 100 | 22 ± 0.5 | > 100 |  |  |  |  |  | 
O=C(CS[C@@H]1O[C@H](CO)[C@@H](O)[C@H](O)[C@H]1NC(=O)c1ccc(F)cc1)NCCCN1C(=O)c2cccc3c(N4CCCCC4)ccc(c23)C1=O [Compound 16b] | 15.8 ± 0.4 | > 100 | 50.9 ± 0.8 | > 100 |  |  |  |  |  | 
O=C(CS[C@@H]1O[C@H](CO)[C@@H](O)[C@H](O)[C@H]1NC(=O)OCc1ccccc1)NCCCN1C(=O)c2cccc3c(N4CCCCC4)ccc(c23)C1=O [Compound 16c] | 2 ± 1.1 | > 100 | 9.7 ± 0.7 | > 100 |  |  |  |  |  | 
CCC(=O)N[C@@H]1[C@@H](O)[C@H](O)[C@@H](CO)O[C@H]1SCC(=O)NCCCN1C(=O)c2cccc3c(N4CCCCC4)ccc(c23)C1=O [Compound 16d] | 28.7 ± 2 | > 100 | 88 ± 1.5 | 1.69 ± 0.05 |  |  |  |  |  | 
CCCC(=O)N[C@@H]1[C@@H](O)[C@H](O)[C@@H](CO)O[C@H]1SCC(=O)NCCCN1C(=O)c2cccc3c(N4CCCCC4)ccc(c23)C1=O [Compound 16e] | 24.6 ± 1.5 | > 100 | 78.9 ± 1.9 | 12.8 ± 0.27 |  |  |  |  |  | 
CC(C)C(=O)N[C@@H]1[C@@H](O)[C@H](O)[C@@H](CO)O[C@H]1SCC(=O)NCCCN1C(=O)c2cccc3c(N4CCCCC4)ccc(c23)C1=O [Compound 16f] | 21.4 ± 0.5 | > 100 | 72.2 ± 0.3 | 23.6 ± 0.43 |  |  |  |  |  | 
O=C(CS[C@@H]1O[C@H](CO)[C@@H](O)[C@H](O)[C@H]1NC(=O)C(F)(F)F)NCCCN1C(=O)c2cccc3c(N4CCCCC4)ccc(c23)C1=O [Compound 16g] | 6.4 ± 0.7 | > 100 | 82.7 ± 1 | 6.37 ± 0.09 |  |  |  |  |  | 
CNC(=O)N[C@@H]1[C@@H](O)[C@H](O)[C@@H](CO)O[C@H]1SCC(=O)NCCCN1C(=O)c2cccc3c(N4CCCCC4)ccc(c23)C1=O [Compound 16h] | 25.2 ± 0.3 | > 100 | 85.5 ± 1.5 | 6.6 ± 0.22 |  |  |  | about 4 fold |  | 
O=C(CS[C@@H]1O[C@H](CO)[C@@H](O)[C@H](O)[C@H]1NC(=O)c1ccccc1)NCCCN1C(=O)c2cccc3c(Br)ccc(c23)C1=O [Compound 16j] | 49.1 ± 1.4 | > 100 | 41.1 ± 0.6 | > 100 |  |  |  |  |  | 
O=C(CS[C@@H]1O[C@H](CO)[C@@H](O)[C@H](O)[C@H]1NC(=O)c1ccc(F)cc1)NCCCN1C(=O)c2cccc3c(Br)ccc(c23)C1=O [Compound 16k] | 48.5 ± 1.7 | > 100 | 48 ± 0.9 | > 100 |  |  |  |  |  | 
CCC(=O)N[C@@H]1[C@@H](O)[C@H](O)[C@@H](CO)O[C@H]1SCC(=O)NCCCN1C(=O)c2cccc3c(Br)ccc(c23)C1=O [Compound 16l] | 41.8 ± 1 | > 100 | 97.7 ± 2.2 | 0.72 ± 0.01 |  |  |  |  |  | 
CCCC(=O)N[C@@H]1[C@@H](O)[C@H](O)[C@@H](CO)O[C@H]1SCC(=O)NCCCN1C(=O)c2cccc3c(Br)ccc(c23)C1=O [Compound 16m] | 39.8 ± 2.3 | > 100 | 97.1 ± 1.3 | 4.36 ± 0.21 |  |  |  |  |  | 
CC(C)C(=O)N[C@@H]1[C@@H](O)[C@H](O)[C@@H](CO)O[C@H]1SCC(=O)NCCCN1C(=O)c2cccc3c(Br)ccc(c23)C1=O [Compound 16n] | 37 ± 0.4 | > 100 | 87.8 ± 0.4 | 6.92 ± 0.1 |  |  |  |  |  | 
O=C(CS[C@@H]1O[C@H](CO)[C@@H](O)[C@H](O)[C@H]1NC(=O)C(F)(F)F)NCCCN1C(=O)c2cccc3c(Br)ccc(c23)C1=O [Compound 16o] | 37.7 ± 0.9 | > 100 | 90.9 ± 0.2 | 4.62 ± 0.18 |  |  |  |  |  | 
CCNC(=O)N[C@@H]1[C@@H](O)[C@H](O)[C@@H](CO)O[C@H]1SCC(=O)NCCCN1C(=O)c2cccc3c(N4CCCCC4)ccc(c23)C1=O [Compound 17a] | 25.9 ± 0.3 | > 100 | 68.6 ± 0.8 | 12 ± 0.3 |  |  |  |  | 2 to 3 | 
CCCNC(=O)N[C@@H]1[C@@H](O)[C@H](O)[C@@H](CO)O[C@H]1SCC(=O)NCCCN1C(=O)c2cccc3c(N4CCCCC4)ccc(c23)C1=O [Compound 17b] | 22.7 ± 0.2 | > 100 | 66.3 ± 0.6 | 13.83 ± 0.02 |  |  |  |  |  | 
CNC(=O)N[C@@H]1[C@@H](O)[C@H](O)[C@@H](CO)O[C@H]1SCC(=O)NCCCN1C(=O)c2cccc3c(Br)ccc(c23)C1=O [Compound 17c] | 40.7 ± 0.7 | > 100 | 96.7 ± 1.6 | 2.17 ± 0.13 |  |  |  |  |  | 
CCNC(=O)N[C@@H]1[C@@H](O)[C@H](O)[C@@H](CO)O[C@H]1SCC(=O)NCCCN1C(=O)c2cccc3c(Br)ccc(c23)C1=O [Compound 17d] | 26.3 ± 1.1 | > 100 | 83.5 ± 0.9 | 7.11 ± 0.01 |  |  |  |  | 2 to 3 | 
CC1=N[C@@H]2[C@@H](O)[C@H](O)[C@@H](CO)O[C@@H]2S1 [NGT, NAG-thiazoline] |  |  |  |  |  |  |  |  |  | 0.07
